{"source": "patent US20220331247A1", "about": "“Polymeric micelle, methods of production and uses thereof” (Association for the Advancement of Tissue Engineering and …, priority 2019, published 2022)", "key": {"[1]": {"system": "hACs cultured in monolayer", "assay": "Biological effects of Dex treatments in hACs monoculture", "type": "cell-based, human", "conditions": "Dex 100 WI", "protocol": "(§1) In an embodiment, the biological effects of dexamethasone (Dex) in monocultures and co-culture of hACs and THP-1 were analysed. To compare the biological effects of free Dex and the polymeric micelles encapsulating Dex, monoculture and co-culture systems of hACs and stimulated M1 macrophages were used. Three different conditions were tested: (i) no treatment (Ctr), (ii) treatment with micelles encapsulating Dex (Mic+Dex), and (iii) treatment with free Dex (Dex). The concentration of Dex was […], and in the co-culture system, 50 mU of GR was added.\n(§2) The samples were analyzed for (i) cell viability, (ii) cell proliferation, (C) TNF-α concentration, and (D) IL-6 concentration. The alphabet “a” denotes significant difference compared to the hACs Ctr, “b” denotes significant difference compared to the THP-1 Ctr, and “c” denotes significant difference as compared to the co-culture Ctr where p<0.01."}, "IL-6": {"system": "IL-6", "assay": "IL-6 quantified in the medium, co-culture system", "type": "cell-based, human", "conditions": "untreated maximum about 1.2 μg/mL", "protocol": "as §1\nTNF-α and IL-6 cytokines (FIGS. 5C and D, respectively) were quantified in the medium. […] This may be explained due to the controlled release of Dex from the polymeric micelles over the time. With regard to IL-6, the establishment of the co-culture system increased IL-6 amount to a maximum of about 1.2 μg/mL. In this case, both the polymeric micelles with encapsulated Dex and free Dex were able to effectively reduce the amount of IL-6 in the medium to about 0.1 μg/mL.\nas §2"}}, "data": [{"smiles": "C[C@@H]1C[C@H]2[C@@H]3CCC4=CC(=O)C=C[C@]4(C)[C@@]3(F)[C@@H](O)C[C@]2(C)[C@@]1(O)C(=O)CO", "note": "[Dex, dexamethasone]", "values": [{"measurement": "hACs' viability and proliferation vs Ctr", "setting": "[1]", "value": "significantly reduced"}, {"measurement": "amount of IL-6 in the medium after treatment", "setting": "IL-6", "value": "about 0.1 μg/mL"}]}]}
